Experimental data reported in the supplement of paper PMC10307832.

Key:
Experiment in all cases: relative viability (nuclei count vs DMSO), 5 days (fraction); higher = more cells survive
[1] = compound: Cn1cc(-c2cnc3ccc4ccc(CS(=O)(=O)NCc5ccccn5)cc4c(=O)c3c2)cn1 [MK-8033] + CC1(C)CCC(c2ccc(Cl)cc2)=C(CN2CCN(c3ccc(C(=O)NS(=O)(=O)c4ccc(N[C@H](CCN5CCOCC5)CSc5ccccc5)c(S(=O)(=O)C(F)(F)F)c4)cc3)CC2)C1 [Navitoclax] (partner 0.5 µM)
How it was run: (§1)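 Lung cancer cell lines in 1536-well plates got either a single drug or a fixed anchor-drug dose together with five library-drug doses (not always all listed) in √10 steps, by pin tool, on the day after seeding. Nuclei were counted after 5 days, and relative viability is the treated-to-vehicle ratio of nuclei counts. Values are medians of duplicate plates.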

[2] = compound: CCc1c2c(nc3ccc(OC(=O)N4CCC(N5CCCCC5)CC4)cc13)-c1cc3c(c(=O)n1C2)COC(=O)[C@]3(O)CC [Irinotecan] + Cc1cc(Nc2cc(N3CCN(C)CC3)nc(Sc3ccc(NC(=O)C4CC4)cc3)n2)n[nH]1 [Tozasertib] (partner 0.1 µM)
How it was run: as §1

[3] = compound: CC[C@@H](C)CNCC(=O)N1CCC2=C([C@@H]1COC3=CC=CC(=C3)C)C=CS2 [RU-SKI 43] + Cc1nc(NC(=O)N2CCC[C@H]2C(N)=O)sc1-c1ccnc(C(C)(C)C(F)(F)F)c1 [Alpelisib] (partner 2 µM)
How it was run: as §1

[4] = compound: Cn1cc(-c2cnc3ccc4ccc(CS(=O)(=O)NCc5ccccn5)cc4c(=O)c3c2)cn1 [MK-8033] + NC(=O)Nc1cc(-c2cccc(F)c2)sc1C(=O)N[C@H]1CCCNC1 [AZD7762] (partner 0.2 µM)
How it was run: as §1

Row | Cell Line | relative viability ([1]; first compound 0.02 µM) | relative viability ([1]; first compound 0.06325 µM) | relative viability ([1]; first compound 0.2 µM) | relative viability ([1]; first compound 2 µM) | relative viability ([2]; first compound 0.6325 µM) | relative viability ([2]; first compound 2 µM) | relative viability ([2]; first compound 6.325 µM) | relative viability ([2]; first compound 20 µM) | relative viability ([3]; first compound 0.1 µM) | relative viability ([3]; first compound 0.3162 µM) | relative viability ([3]; first compound 1 µM) | relative viability ([3]; first compound 3.162 µM) | relative viability ([3]; first compound 10 µM) | relative viability ([4]; first compound 0.02 µM) | relative viability ([4]; first compound 0.06325 µM) | relative viability ([4]; first compound 0.2 µM) | relative viability ([4]; first compound 0.6325 µM) | relative viability ([4]; first compound 2 µM) | relative viability ([1]; first compound 0.6325 µM)
1 | HCC-78 | 0.596 | 0.665 | 0.767 | 0.774 | 0.411 | 0.356 | 0.21 | 0.0831 | 0.349 | 0.325 | 0.378 | 0.436 | 0.29 | 0.712 | 0.517 | 0.719 | 0.557 | 0.566 | –
2 | NCI-H441 | 0.566 | 0.448 | 0.569 | 0.415 | 0.497 | 0.443 | 0.374 | 0.295 | 0.87 | 0.907 | 0.573 | 0.68 | 0.946 | 1 | 1.09 | 1.24 | 0.984 | 0.94 | 0.573
3 | NCI-H1299 | 1.04 | 1.03 | 1.03 | 1.01 | – | – | – | – | 1.18 | 1.14 | 1.03 | 1.08 | 1.15 | – | – | – | – | – | 1.07
4 | LU99A | 0.751 | 0.667 | 0.794 | 0.593 | 0.257 | 0.223 | 0.153 | 0.225 | 0.526 | 0.558 | 0.5 | 0.578 | 0.456 | 0.522 | 0.27 | 0.367 | 0.458 | 0.317 | 0.819
5 | NCI-H1651 | 1.06 | 1.03 | 1.07 | 1.02 | 0.532 | 0.575 | 0.255 | 0.183 | 1.08 | 1.25 | 0.953 | 0.926 | 0.936 | 0.551 | 0.397 | 0.482 | 0.479 | 0.564 | 1.13
6 | HARA | 1.1 | 1.14 | 1.15 | 1.16 | 0.0659 | 0.12 | 0.107 | 0.103 | 0.762 | 0.729 | 0.843 | 0.69 | 0.733 | 0.471 | 0.268 | 0.263 | 0.303 | 0.438 | 1.1
7 | RERF-LC-KJ | 0.972 | 0.867 | 0.756 | 0.882 | 0.444 | 0.438 | 0.358 | 0.179 | 0.826 | 0.98 | 0.734 | 0.821 | 0.802 | 0.984 | 0.84 | 1.01 | 0.981 | 0.942 | 0.844
8 | LCLC-103H | – | – | – | – | 0.431 | 0.425 | 0.301 | 0.32 | 0.941 | 1.06 | 1.05 | 1.14 | 0.91 | 0.756 | 0.712 | 0.788 | 0.741 | 0.82 | –
9 | SK-LU-1 | 0.808 | 0.798 | 0.792 | 0.807 | 0.315 | 0.295 | 0.26 | 0.285 | 0.931 | 1.31 | 1.25 | 1.13 | 1.01 | – | – | – | – | – | 0.919
10 | Calu-6 | 0.784 | 0.799 | 0.691 | 0.905 | – | – | – | – | 0.994 | 1.14 | 0.994 | 1.03 | 0.989 | – | – | – | – | – | 0.869
11 | NCI-H1648 | – | – | – | – | 0.39 | 0.346 | 0.402 | 0.291 | – | – | – | – | – | 0.6 | – | 0.533 | 0.702 | 0.769 | –
12 | NCI-H522 | – | – | – | – | 0.506 | 0.502 | 0.526 | 0.486 | – | – | – | – | – | 0.831 | 0.748 | 0.809 | 0.881 | 0.97 | –
13 | LOU-NH91 | 0.686 | – | 0.674 | 0.695 | 0.568 | 0.533 | 0.358 | 0.222 | 0.72 | 0.738 | 0.711 | 0.681 | 0.7 | 0.816 | 0.624 | 0.76 | 0.807 | 0.814 | 0.675
14 | HCC-366 | 1.02 | 1.11 | 1.06 | 1.07 | 0.0963 | 0.109 | 0.0553 | 0.0875 | 0.439 | 0.53 | 0.438 | 0.572 | 0.355 | 0.367 | 0.231 | 0.228 | 0.291 | 0.256 | 1.01
15 | CAL-12T | 1.19 | 1.2 | 1.15 | 1.28 | – | 0.419 | 0.322 | 0.197 | 1.06 | 1.53 | 1.44 | 1.39 | 1.25 | 0.594 | 0.66 | 0.59 | 0.573 | 0.567 | 0.92
16 | PC-3 [JPC-3] | 0.746 | – | 0.775 | 0.749 | 0.78 | 0.81 | 0.363 | 0.314 | 0.988 | 1.03 | 1.11 | 1.08 | 0.998 | 0.705 | – | 0.656 | 0.843 | 0.782 | 0.726
17 | NCI-H2087 | 1.1 | 0.877 | 0.916 | 1.05 | 0.184 | 0.239 | 0.36 | 0.192 | 1 | 1.4 | 1.12 | 1.11 | 0.788 | 1.43 | 1.32 | 1.22 | 1.3 | 1.22 | 1
18 | NCI-H1395 | 1.38 | 1.02 | 1.04 | 1.07 | 0.607 | 0.716 | 0.594 | 0.494 | 1.14 | 1.38 | 0.936 | 1.29 | 0.836 | 0.397 | 0.35 | 0.381 | 0.383 | 0.389 | 1.15
19 | ABC-1 | – | – | – | – | – | 0.236 | 0.211 | 0.114 | 1.02 | 1.13 | 0.895 | 0.986 | 1.06 | 0.86 | 0.709 | 0.475 | 0.874 | 1.06 | –
